Laboratory results from ChEMBL document CHEMBL4673322, “Discovery and optimization of a potent and selective indazolamine series of IRAK4 inhibitors” (Bioorg Med Chem Lett, 2021).
≈ marks a conversion by molar mass, not a printed value.

Columns and labels:
[1] = Half life in Sprague-Dawley rat at 10 mg/kg, po; assay type: ADME, organism-based; details: in vivo
[2] = AUC (0 to 24 hrs) in Sprague-Dawley rat at 10 mg/kg, po; assay type: ADME, organism-based; design: time < 24 hr, route oral, dose 10 mg/kg; details: in vivo
[3] = Cmax in Sprague-Dawley rat at 10 mg/kg, po; assay type: ADME, organism-based; design: route oral, dose 10 mg/kg; details: in vivo
in vivo = details: Sprague-Dawley, rat, iv, 1 mg/kg
Description: Clearance in Sprague-Dawley rat at 1 mg/kg, iv

[4] = AUC (0 to 24 hrs) in monkey at 2 mg/kg, po; assay type: ADME, organism-based, Macaca mulatta; design: time < 24 hr, route oral, dose 2 mg/kg; details: rhesus monkey, in vivo
[5] = Oral bioavailability in monkey at 2 mg/kg; assay type: ADME, organism-based, Macaca mulatta; details: rhesus monkey, in vivo
[6] = AUC (0 to 24 hrs) in monkey at 0.5 mg/kg, iv; assay type: ADME, organism-based, Macaca mulatta; design: time < 24 hr, route intravenous, dose 0.5 mg/kg; details: rhesus monkey, in vivo
[7] = Half life in monkey at 2 mg/kg, po; assay type: ADME, organism-based, Macaca mulatta; details: rhesus monkey, in vivo
[8] = Volume of distribution at steady state in monkey at 0.5 mg/kg, iv; assay type: ADME, organism-based, Macaca mulatta; details: rhesus monkey, in vivo, read-out: Vdss
[9] = Half life in monkey at 0.5 mg/kg, iv; assay type: ADME, organism-based, Macaca mulatta; details: rhesus monkey, in vivo
[10] = Clearance in monkey at 0.5 mg/kg, iv; assay type: ADME, organism-based, Macaca mulatta; details: rhesus monkey, in vivo
[11] = Oral bioavailability in dog at 2 mg/kg; assay type: ADME, organism-based, Canis lupus familiaris; details: in vivo
[12] = Half life in dog at 2 mg/kg, po; assay type: ADME, organism-based, Canis lupus familiaris; details: in vivo
[13] = AUC (0 to 24 hrs) in dog at 2 mg/kg, po; assay type: ADME, organism-based, Canis lupus familiaris; design: time < 24 hr, route oral, dose 2 mg/kg; details: in vivo
[14] = AUC (0 to 24 hrs) in dog at 0.5 mg/kg, iv; assay type: ADME, organism-based, Canis lupus familiaris; design: time < 24 hr, route intravenous, dose 0.5 mg/kg; details: in vivo
[15] = Clearance in dog at 0.5 mg/kg, iv; assay type: ADME, organism-based, Canis lupus familiaris; details: in vivo
[16] = Volume of distribution at steady state in dog at 0.5 mg/kg, iv; assay type: ADME, organism-based, Canis lupus familiaris; details: in vivo, read-out: Vdss
[17] = Oral bioavailability in mouse at 2 mg/kg; assay type: ADME, organism-based; details: in vivo
[18] = Half life in dog at 0.5 mg/kg, iv; assay type: ADME, organism-based, Canis lupus familiaris; details: in vivo
[19] = AUC(0 to 24 hrs) in mouse at 2 mg/kg, po; assay type: ADME, organism-based; design: time < 24 hr, route oral, dose 2 mg/kg; details: in vivo
[20] = Volume of distribution at steady state in mouse at 1 mg/kg, iv; assay type: ADME, organism-based; details: in vivo, read-out: Vdss
[21] = AUC(0 to 24 hrs) in mouse at 1 mg/kg, iv; assay type: ADME, organism-based; design: time < 24 hr, route intravenous, dose 1 mg/kg; details: in vivo
[22] = Half life in mouse at 1 mg/kg, iv; assay type: ADME, organism-based; details: in vivo
[23] = Clearance in mouse at 1 mg/kg, iv; assay type: ADME, organism-based; details: in vivo
[24] = Metabolic stability in human Hepatocyte assessed as half life; assay type: ADME, tissue-based; details: hepatocytes
[25] = Protein binding in human plasma; assay type: ADME, cell-free; details: read-out: PPB (converted)
[26] = Apparent permeability across apical to basolateral side; assay type: ADME; details: not told
[27] = Apparent permeability across basolateral to apical side; assay type: ADME; details: not told
[28] = Metabolic stability in dog liver microsomes assessed as intrinsic clearance; assay type: ADME, Canis lupus familiaris, Microsome; details: read-out: CLH
[29] = Metabolic stability in monkey liver microsomes assessed as intrinsic clearance; assay type: ADME, Macaca mulatta, Microsome; details: rhesus monkey, read-out: CLH
[30] = Metabolic stability in mouse liver microsomes assessed as intrinsic clearance; assay type: ADME, Microsome; details: read-out: CLH
[31] = Metabolic stability in rat liver microsomes assessed as intrinsic clearance; assay type: ADME, Microsome; details: read-out: CLH
[32] = Metabolic stability in human liver microsomes assessed as intrinsic clearance; assay type: ADME, Microsome; details: read-out: CLH
physchem = details: FaSSIF, pH 6.5
Description: Solubility in FassIF at pH 6.5

[33] = Half life in Sprague-Dawley rat at 5 mg/kg, po; assay type: ADME, organism-based; details: in vivo
[34] = Oral bioavailability in Sprague-Dawley rat at 5 mg/kg; assay type: ADME, organism-based; details: in vivo
[35] = Cmax in Sprague-Dawley rat at 5 mg/kg, po; assay type: ADME, organism-based; design: route oral, dose 5 mg/kg; details: in vivo
[36] = AUC in Sprague-Dawley rat at 5 mg/kg, po; assay type: ADME, organism-based; design: dose 5 mg/kg; details: in vivo

COc1cc(NC(=O)c2cccc(C(F)(F)F)n2)cc2cn(CCC(C)(C)O)nc12
half-life [1]: 3.5 h | AUC(0-t) at 24 h [2]: 34500 ng·h/mL | Cmax [3]: 3320 ng/mL | clearance (in vivo): 5.5 mL/min/kg

CN(C)CCn1cc2cc(NC(=O)c3cccc(C(F)(F)F)n3)c(C(C)(C)O)cc2n1
AUC(0-t) at 24 h [4]: 3670 ng·h/mL | bioavailability [5]: 49% | AUC(0-t) at 24 h [6]: 1870 ng·h/mL | half-life [7]: 3.5 h | Vd [8]: 0.67 L/kg | half-life [9]: 1.96 h | clearance [10]: 4.86 mL/min/kg | bioavailability [11]: 14.4% | half-life [12]: 6.4 h | AUC(0-t) at 24 h [13]: 85.3 ng·h/mL | AUC(0-t) at 24 h [14]: 148 ng·h/mL | clearance [15]: 55.6 mL/min/kg | Vd [16]: 2.63 L/kg | bioavailability [17]: 67.3% | half-life [18]: 0.72 h | AUC(0-t) at 24 h [19]: 1300 ng·h/mL | Vd [20]: 2.43 L/kg | AUC(0-t) at 24 h [21]: 966 ng·h/mL | half-life [22]: 1.62 h | clearance [23]: 17.1 mL/min/kg | half-life [24]: 9.72 h | fraction unbound [25]: 0.014 | Papp A→B [26]: 27.3 ×10⁻⁶ cm/s | Papp B→A [27]: 22.7 ×10⁻⁶ cm/s | CLint scaled [28]: 116 mL/min/kg | CLint scaled [29]: 1.96 mL/min/kg | CLint scaled [30]: 8.82 mL/min/kg | CLint scaled [31]: 15 mL/min/kg | CLint scaled [32]: 5.25 mL/min/kg | half-life [1]: 3.3 h | AUC(0-t) at 24 h [2]: 11900 ng·h/mL | Cmax [3]: 2110 ng/mL | clearance (in vivo): 8.3 mL/min/kg | solubility (physchem): 92.3 µM (≈ 40.2 µg/mL)

CC(C)(O)CCn1cc2cc(NC(=O)c3cccc(C(F)(F)F)n3)c(C(C)(C)O)cc2n1
half-life [33]: 3.6 h | bioavailability [34]: 84% | Cmax [35]: 2310 ng/mL | AUC [36]: 18400 ng·h/mL | CLint scaled [30]: 3.91 mL/min/kg | CLint scaled [31]: 3.11 mL/min/kg | CLint scaled [32]: 1.28 mL/min/kg
